The source of these data is PubChem BioAssay (NCI).

Structures are written as SMILES. Values joined by “and” are separate entries in the source; they are usually repeats but may differ in a detail not shown here. Identical values can stand only once.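 Assay format: 96-well plates, 48-hour exposure. GI50 marks 50% less growth. The concentration for full growth arrest is given as TGI.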

Test in all cases: NCI tumour cell line growth inhibition, 48 h
Test [1] deals with HT29 colon.
The subject of test [2] is PC-3 prostate.
Test [3] has as its system SK-MEL-5 melanoma.
Test [4] relates to OVCAR-3 ovarian.
Test [5] concerns HCT-116 colon.
The test system of test [6] is HCT-15 colon.
The subject of test [7] is M14 melanoma.
Test [8] concerns SNB-19 CNS.
Test [9] relates to SN12C renal.
Test [10] has as its system NCI-H522 lung.

`N=C(N)c1ccc(-c2ccc(-c3cccs3)s2)cc1`: the GI50 was 1.24 µM in test [1], 1.62 µM in [2] and 1.6 µM in test [3]. The results for the TGI in [1], in [2] and in test [3] were 2.6 µM, 3.15 µM and 2.99 µM, respectively.
As to `Cc1cn([C@@H]2C[C@H](CO)[C@@H](O)C2)c(=O)[nH]c1=O`, the TGI in [1], in [4], in test [5], in test [6], in test [7] and in test [8] was over 100 µM each time. In addition, the TGI in test [9] and in test [10] was over 100 µM each time.
Take `Cn1ccnc1C(O)(c1nccn1C)c1nccn1C`: the TGI in test [1], in test [7], in test [8], in test [9], in test [10] and in test [3] was over 100 µM in each case.
As for `O=C(CN(c1ccccc1)c1ccccc1)N1c2ccccc2C2C=CC=CC21` (stereo not given), the TGI in test [1] is over 56.5 µM; in test [4], 44.6 µM; in [5], 45.2 µM; in test [6], 32.1 µM; in test [7], over 57.3 µM; in [8], 38.1 µM. In addition, the TGI was found to be 34.4 µM in test [9], 49 µM in [10] and 29.9 µM in [3].
On to `COc1c(O)c2c3c(c(C)cc(O)c3c1O)C(=O)C(O)(C(C)(C)C(C)=O)C2=O` (stereo not given), for which the TGI in test [1], in test [4], in [5], in test [6], in [7] and in test [8] was over 100 µM each time. Also, the TGI in test [9], in [10] and in test [3] was over 100 µM in each case. The GI50 in [10] is 49.7 µM and > 100 µM.
With `CCOC(=O)c1c(-c2ccccc2)c(-c2ccccc2)cn1C`, the TGI in [1], in test [4], in test [6], in test [7], in [8] and in test [9] was over 10 µM in each case. Further, the TGI in [10] is over 10 µM.
Consider `COC(=O)/C(=N/O)C(C(=O)C=C(C)C)C(=O)C(=O)Nc1nc2ccc([N+](=O)[O-])cc2s1` (stereo not given), for which the TGI was over 100 µM in test [1]; 76.1 µM in [4]; over 100 µM in test [5]; over 100 µM in test [6]; over 100 µM in test [7]; over 100 µM in [8]. Further, the TGI in [9], in test [10] and in [3] was over 100 µM each time.
As to `O=C1NCCS(=O)(=O)N[C@@H](CC2=CC=CCC2)C(=O)N2CCCC12` (stereo not given in full), the TGI in [1], in [4], in [5], in test [6], in test [7] and in [8] was over 100 µM each time. In addition, the TGI in [9], in test [10] and in test [3] was over 100 µM each time.
Take `Cc1cccc(C2=C/C(=C(\SS/C(C(=O)c3ccc(OCC(=O)O)c(Cl)c3Cl)=C3\C=C(c4cccc(C)c4)SS3)C(=O)c3ccc(OCC(=O)O)c(Cl)c3Cl)SS2)c1`: the TGI in test [1] was over 75 µM; in test [4], 50.8 µM; in [5], over 53.8 µM; in test [6], over 51.6 µM; in test [7], 51.3 µM; in test [8] it was 43.7 µM. Further, the TGI in [9] is 65.1 µM; in test [10], 8.14 µM; in test [3], 47.8 µM.
With `CC1CN=C(N(C(=O)Nc2ccc(F)c(Cl)c2)c2ccccc2)S1` (stereo not given), the TGI is 58 µM in test [1]; over 100 µM in test [4]; 67.8 µM in [5]; 95.5 µM in test [2]; 75.3 µM in test [6]; 75.5 µM in test [7]. Moreover, the TGI was over 100 µM in test [8], 49.9 µM in test [9] and 30 µM in test [3].
Turning to `CCOC(=O)C(Cl)(Cl)/S(=N\S(=O)(=O)c1ccccc1)NC(=O)c1ccccc1` (stereo not given), the TGI in test [1], in [4], in test [5], in test [2], in test [6] and in [7] was over 100 µM each time. Also, the TGI in test [8], in [9] and in [3] was over 100 µM throughout.
In the case of `CSC(=Nc1ccccc1)N(c1ccccc1)c1nc(=[N+](C)C)ss1`, the TGI came out at 0.383 µM in [1]; 4.83 µM in test [4]; 12 µM in test [5]; 13.7 µM in test [6]; 2.5 µM in test [7]; 15.4 µM in [8]. Further, the TGI amounted to 14.7 µM in test [9], 1.72 µM in [10] and 5.15 µM in [3].
Regarding `O=C(NC(COC(=O)C(Cc1ccccc1)NC(=O)c1ccccc1)Cc1ccccc1)c1ccccc1` (stereo not given), the TGI in test [1], in test [4], in test [2], in [6], in test [7] and in test [8] was over 50 µM in each case. Moreover, in test [10], the TGI is over 50 µM.
For the compound `CCN1CCCC(NCc2c3ccccc3c(CNC3CCCN(CC)C3)c3ccccc23)C1` (stereo not given), the TGI was over 37.5 µM in test [1]; 26.1 µM in test [4]; 23.3 µM in test [5]; 43.9 µM in test [6]; 65.8 µM in [8]; 40.3 µM in test [9]. Also, the TGI in [10] was 8.12 µM; in [3] it was 27.4 µM.
For the compound `COc1ccc(-c2oc(/C=N/NC(N)=S)c([N+](=O)[O-])c2-c2ccc(OC)c(OC)c2)cc1OC`, the TGI in test [1] is 51.7 µM; in test [4], 47.9 µM; in test [5], 41.1 µM; in [6], over 100 µM; in test [7] it was 67.9 µM; in test [8], 97 µM. Besides, the results for the TGI in [9] and in [10] were over 100 µM and 65.3 µM, respectively.
With `CC1=NN(C(=O)CC(=O)Nc2ccccc2F)C(=O)C1N=Nc1ccccc1[N+](=O)[O-]` (stereo not given), the TGI in test [1], in test [4], in test [5], in test [6], in [7] and in test [8] was over 100 µM each time. Also, the figures for the TGI in test [9], in test [10] and in [3] were over 100 µM, over 100 µM and 33.5 µM, respectively.
Consider `Nc1nc(N)c(N=O)c(Nc2ccc(Br)cc2)n1`, for which the TGI in [1] is 52.3 µM; in test [4], 79.3 µM; in [5], 37.8 µM; in test [6] it was over 100 µM; in test [7] it was 52.8 µM; in test [8] it was over 100 µM. The TGI in [9] and in test [10] was over 100 µM throughout.
Turning to `c1ccc2c(c1)c1c(n2CCOCCN2CCOCC2)CCCC1`, the TGI in test [1] is 31.6 µM; in test [4], over 100 µM; in [5] it was over 100 µM; in [2] it was over 100 µM; in test [6] it was over 100 µM; in [7] it was 30.9 µM. The figures for the TGI in test [8] and in test [3] were over 100 µM and 48.9 µM, respectively.
As for `O=C(CNc1c(Cl)cccc1Cl)NC1C=Cc2ccc(S(=O)(=O)Nc3c(Cl)cccc3Cl)cc2C1=O` (stereo not given), the TGI in [1], in test [4], in test [5], in [2], in test [6] and in test [7] was over 100 µM each time. The TGI in test [8], in [9] and in test [10] was over 100 µM in each case.
For the compound `C=Cc1ccc(C)[n+](C[Si](C)(C)O[Si](C)(C)C[n+]2cc(C=C)ccc2C)c1`, the TGI in test [1], in test [4], in [5], in test [7], in [8] and in test [9] was over 100 µM in each case. Also, the TGI in test [10] and in test [3] was over 100 µM throughout.
Consider `CC(=O)O/N=C/c1c2ccccc2cc2ccccc12`, for which the TGI in [1], in test [4], in test [5], in [2], in [6] and in test [7] was over 100 µM in each case. Besides, the TGI in test [8], in test [9] and in test [3] was over 100 µM in each case.
Take `CC(=O)OCC1OC(n2cc(I)c(=O)[nH]c2=O)C(OC(C)=O)C(OC(C)=O)C1OC(C)=O` (stereo not given): the TGI in test [1], in test [4], in test [5], in test [6], in [7] and in test [8] was over 100 µM each time. For the same compound, the TGI in test [9], in test [10] and in test [3] was over 100 µM throughout.
In the case of `O=C1Sc2ccccc2C(=O)N2CSCC12` (stereo not given), the TGI in test [1], in test [4], in test [5], in test [7], in [8] and in [9] was over 100 µM each time. The TGI in test [10] and in test [3] was over 100 µM each time.
In the case of `N#CC1=C(c2ccccc2)NNC(c2ccc(Cl)cc2)CC1=O` (stereo not given), the TGI in test [1] was over 100 µM; in test [5], over 100 µM; in test [6] it was over 100 µM; in test [7], 68.9 µM; in test [8], over 100 µM; in [9], over 100 µM. Moreover, the TGI in test [10] is 51.7 µM; in test [3], 68.2 µM.
Take `CCC1=CC2CN3Cn4c(c(COCc5c6n(c7ccccc57)CN5CC7C=C(CC)C5C6(C(=O)OC)C7)c5ccccc54)C(C(=O)OC)(C2)C13`: the TGI in test [1], in test [4], in test [5], in test [6], in [7] and in test [8] was over 100 µM throughout. Further, the TGI in test [9], in [10] and in [3] was over 100 µM in each case.
For `O=C(Cc1nc2c3c(ccc2[nH]c1=O)C(=O)c1ccccc1C3=O)C(=O)Nc1ccccc1[N+](=O)[O-]`, the TGI was determined as 41.7 µM in test [1]; 25.6 µM in test [4]; 65.4 µM in [5]; 34 µM in [7]; 32.9 µM in test [8]; 18 µM in [10]. Further, the TGI in test [3] stood at 37.3 µM.
As for `O=c1[nH]cnc(NC2C=C(CO)C(O)C2O)c1[N+](=O)[O-]` (stereo not given), the TGI is over 100 µM in test [1]; over 100 µM in test [4]; over 53.1 µM in test [5]; over 54.7 µM in test [6]; over 100 µM in test [7]; over 100 µM in [8]. The TGI in [9], in test [10] and in test [3] was over 100 µM in each case.
With `CC(=O)O[C@H]1C(=O)[C@@]2(C)[C@H]([C@H](OC(=O)c3ccc(F)cc3)[C@]3(O)C[C@H](OC(=O)[C@H](O)[C@@H](NC(=O)c4ccccc4)c4ccccc4)C(C)=C1C3(C)C)[C@]1(OC(C)=O)CO[C@@H]1C[C@@H]2O`, the TGI in [1] is 3.85 µM; in test [4], 0.0437 µM; in test [5], 0.381 µM; in test [6] it was over 25 µM; in test [8], over 25 µM; in test [9], over 25 µM. For the same compound, the TGI in test [10] is 0.585 µM; in test [3] it was over 9.33 µM.
Turning to `CCOP(=O)(OCC)C(C(=O)OC)C(=O)C(=O)Nc1ccc(Cl)cc1Cl` (stereo not given), the TGI in [1], in [4], in test [5], in test [6], in test [7] and in test [8] was over 100 µM throughout. The TGI in test [9], in test [10] and in test [3] was over 100 µM each time.
With `CC(C)(C)OC(=O)NCCC(N)=S`, the TGI in [1], in test [4], in [5], in test [2], in [6] and in test [7] was over 100 µM each time. For the same compound, the TGI in test [8], in [9] and in test [3] was over 100 µM in each case.
